From patent US9365556B2, “3,5-diaminopyrazole kinase inhibitors” (Axikin Pharmaceuticals, Inc., priority 2012, dated 2016)

Assays:
[1] = molecular target: T1, kinase domain protein of RC kinase (Homo sapiens, UniProt Q56UN5); assay: Enzymatic assay for kinase inhibitory activity (Crebtide substrate, LANCE read-out); assay type: biochemical; details: compound at 1 μM
T1 sequence (Q56UN5 1061-1324 limits assumed): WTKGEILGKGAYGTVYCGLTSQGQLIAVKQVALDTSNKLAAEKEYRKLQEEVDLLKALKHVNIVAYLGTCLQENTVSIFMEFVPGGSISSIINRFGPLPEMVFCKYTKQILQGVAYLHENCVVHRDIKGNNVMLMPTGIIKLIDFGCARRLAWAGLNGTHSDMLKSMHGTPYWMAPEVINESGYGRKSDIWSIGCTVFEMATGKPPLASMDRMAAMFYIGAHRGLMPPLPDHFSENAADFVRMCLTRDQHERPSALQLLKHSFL
Outline: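 Compound tested at 1 μM final in HEPES/MgCl2/DTT buffer with 50 nM Crebtide and kinase domain at 1 μM ATP; full-length kinase at 3 μM ATP after 45 min preincubation. Reaction 45 min at room temperature, stopped with EDTA, read by LANCE TR-FRET (665/615 nm). Activity binned as % inhibition at 1 μM.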

## N#Cc1c(Nc2cccc(Cl)c2)n[nH]c1N=Cc1ccc(O)c([N+](=O)[O-])c1 [Compound A5, 3-((3-chlorophenyl)amino)-5-((4-hydroxy-3-nitrobenzylidene)amino)-1H-pyrazole-4-carbonitrile]
[1]
  inhibition at 1 µM: 20 to 50%
other
  melting point: 286 to 288 °C

## N#Cc1c(Nc2cccc(Cl)c2)n[nH]c1/N=C/c1ccc(-n2cnc3ccccc32)cc1 [Compound A67]
[1]
  inhibition at 1 µM: 20 to 50%
other
  melting point: 308 to 310 °C

## NC(=O)c1c(Nc2cccc(Cl)c2)n[nH]c1/N=C/c1c[nH]cn1 [Compound B19]
[1]
  inhibition at 1 µM: 20 to 50%
other
  melting point: 265 to 267 °C

## COc1ccccc1/C=N/c1[nH]nc(Nc2ccc(Cl)cc2)c1C(N)=O [Compound B34]
[1]
  inhibition at 1 µM: ≤ 5%
other
  melting point: 270 to 273 °C

## COc1ccc(/C=N/c2[nH]nc(Nc3ccccc3Cl)c2C(N)=O)cc1 [Compound B120]
[1]
  inhibition at 1 µM: ≥ 50%
other
  melting point: 288 to 292 °C

## NC(=O)c1c(Nc2ccc(Cl)cc2)n[nH]c1/N=C/c1ccc(Cl)cc1 [Compound B24]
[1]
  inhibition at 1 µM: ≤ 5%
other
  melting point: 307 to 309 °C

## COc1cccc(/C=N/c2[nH]nc(Nc3ccc(Cl)cc3)c2C(N)=O)c1 [Compound B33]
[1]
  inhibition at 1 µM: ≤ 5%
other
  melting point: 279 to 283 °C

## COc1ccc(/C=N/c2[nH]nc(Nc3ccccc3)c2C(N)=O)cc1 [Compound B13]
[1]
  inhibition at 1 µM: 20 to 50%
other
  melting point: 257 to 260 °C

## N#Cc1c(Nc2cccc(Cl)c2)n[nH]c1/N=C/c1cccn1S(=O)(=O)c1ccccc1 [Compound A64]
[1]
  inhibition at 1 µM: 20 to 50%
other
  melting point: 217 to 225 °C

## COc1cc(/C=N/c2[nH]nc(Nc3ccccc3)c2C#N)ccc1O [Compound A21, 5-((4-hydroxy-3-methoxybenzylidene)amino)-3-(phenylamino)-1H-pyrazole-4-carbonitrile]
[1]
  inhibition at 1 µM: 5 to 20%
other
  melting point: 208 to 214 °C

## COc1cccc(/C=N/c2[nH]nc(Nc3cccc(Cl)c3)c2C(N)=O)c1 [Compound B8]
[1]
  inhibition at 1 µM: 20 to 50%
other
  melting point: 283 to 285 °C

## Cc1ccc(/C=N/c2[nH]nc(Nc3cccc(Cl)c3)c2C#N)c(O)c1 [Compound A101]
[1]
  inhibition at 1 µM: ≤ 5%
other
  melting point: 293 to 296 °C

## N#Cc1c(Nc2cccc(Cl)c2)n[nH]c1/N=C/c1ccc(S(F)(F)(F)(F)F)cc1 [Compound A65, 3-((3-chlorophenyl)amino)-5-((4-(pentafluorolthio)benzylidene)amino)-1H-pyrazole-4-carbonitrile]
[1]
  inhibition at 1 µM: 5 to 20%
other
  melting point: 200 to 216 °C

## N#Cc1c(Nc2cccc(Cl)c2)n[nH]c1/N=C/c1ccc(-c2ccccn2)cc1 [Compound A84]
[1]
  inhibition at 1 µM: ≤ 5%
other
  melting point: 326 to 329 °C

## NC(=O)c1c(Nc2ccc(Cl)cc2)n[nH]c1/N=C/c1ccc[nH]1 [Compound B20]
[1]
  inhibition at 1 µM: 20 to 50%
other
  melting point: 273 to 277 °C

## COc1ccc(/C=N/c2[nH]nc(Nc3cccc(Cl)c3)c2C#N)cc1F [Compound A93]
[1]
  inhibition at 1 µM: 20 to 50%
other
  melting point: 217 to 220 °C

## COc1cccc(O)c1/C=N/c1[nH]nc(Nc2ccccc2Cl)c1C(N)=O [Compound B1]
[1]
  inhibition at 1 µM: 5 to 20%
other
  melting point: 238 to 246 °C

## N#Cc1c(Nc2cccc(Cl)c2)n[nH]c1/N=C/c1ccc(O)cc1 [Compound A20]
[1]
  inhibition at 1 µM: ≤ 5%
other
  melting point: 242 to 245 °C

## N#Cc1c(Nc2ccc(Cl)cc2)n[nH]c1/N=C/c1ccc(O)cc1 [Compound A32]
[1]
  inhibition at 1 µM: 5 to 20%
other
  melting point: 286 to 288 °C

## COc1ccccc1/C=N/c1[nH]nc(Nc2cccc(Cl)c2)c1C#N [Compound A23]
[1]
  inhibition at 1 µM: 20 to 50%
other
  melting point: 239 to 241 °C

## COc1ccc(Nc2n[nH]c(/N=C/c3ccc(O)c([N+](=O)[O-])c3)c2C#N)cc1 [Compound A42]
[1]
  inhibition at 1 µM: ≤ 5%
other
  melting point: 274 to 275 °C

## NC(=O)c1c(Nc2ccc(Cl)cc2)n[nH]c1/N=C/c1ccc(O)cc1O [Compound B36]
[1]
  inhibition at 1 µM: ≥ 50%
other
  melting point: 243 to 246 °C

## NC(=O)c1c(Nc2ccc(Cl)cc2)n[nH]c1/N=C/c1ccccc1 [Compound B21]
[1]
  inhibition at 1 µM: 5 to 20%
other
  melting point: 303 to 306 °C

## N#Cc1c(Nc2ccccc2)n[nH]c1/N=C/c1cc(F)cc2c1OCOC2 [Compound A30]
[1]
  inhibition at 1 µM: 5 to 20%
other
  melting point: 247 to 251 °C

## NC(=O)c1c(Nc2ccccc2Cl)n[nH]c1/N=C/c1ccc(O)cc1 [Compound B117]
[1]
  inhibition at 1 µM: ≥ 50%
other
  melting point: 254 to 258 °C

## NC(=O)c1c(Nc2cccc(Cl)c2)n[nH]c1/N=C/c1ccc(O)cc1 [Compound B5]
[1]
  inhibition at 1 µM: ≥ 50%
other
  melting point: 261 to 263 °C

## N#Cc1c(Nc2cccc(Cl)c2)n[nH]c1/N=C/c1ccc(Oc2ccc(C(F)(F)F)cn2)cc1 [Compound A112]
[1]
  Activity (inhibition of the RC kinase activity): C (no greater than 20% but at least 5% inhibition of the RC kinase activity at 1 μM)
other
  melting point: 268 to 270 °C

## NC(=O)c1c(Nc2cccc(Cl)c2)n[nH]c1/N=C/c1ccccc1O [Compound B54]
[1]
  inhibition at 1 µM: 5 to 20%
other
  melting point: 284 to 286 °C

## N#Cc1c(Nc2cccc(Cl)c2)n[nH]c1/N=C/c1ccc(Cl)cc1Cl [Compound A4]
[1]
  inhibition at 1 µM: ≤ 5%
other
  melting point: 277 to 281 °C

## NC(=O)c1c(Nc2ccc(Cl)cc2)n[nH]c1/N=C/c1ccc(O)cc1 [Compound B26]
[1]
  inhibition at 1 µM: ≥ 50%
other
  melting point: 288 to 289 °C

## N#Cc1c(Nc2ccc(Cl)cc2)n[nH]c1/N=C/c1cccc2ccccc12 [Compound A40]
[1]
  inhibition at 1 µM: ≤ 5%
other
  melting point: 289 to 292 °C

## N#Cc1c(Nc2cccc(Cl)c2)n[nH]c1/N=C/c1cncc(N2CCCC2)c1 [Compound A86]
[1]
  inhibition at 1 µM: ≤ 5%
other
  melting point: 305 to 309 °C

## N#Cc1c(Nc2cccc(Cl)c2)n[nH]c1/N=C/c1cc(F)cc2c1OCOC2 [Compound A29, 3-((3-chlorophenyl)amino)-5-(((6-fluoro-4H-benzo[d][1,3]dioxin-8-yl)methylene)amino)-1H-pyrazole-4-carbonitrile]
[1]
  inhibition at 1 µM: 5 to 20%
other
  melting point: 248 to 251 °C

## COc1ccc(/C=N/c2[nH]nc(Nc3ccc(Cl)cc3)c2C#N)cc1 [Compound A33]
[1]
  inhibition at 1 µM: ≤ 5%
other
  melting point: 290 to 291 °C

## N#Cc1c(Nc2cccc(Cl)c2)n[nH]c1/N=C/c1cnc(N)s1 [Compound A103]
[1]; 1 µM
  Activity (inhibition of the RC kinase activity): D (no greater than 5% inhibition of the RC kinase activity at 1 μM)
other
  melting point: 221 to 225 °C

## N#Cc1c(Nc2cccc(Cl)c2)n[nH]c1/N=C/c1ccc(F)cc1O [Compound A98]
[1]
  inhibition at 1 µM: 20 to 50%
other
  melting point: 232 to 238 °C

## N#Cc1c(Nc2cccc(Cl)c2)n[nH]c1/N=C/c1ccc(Oc2ncccn2)cc1 [Compound A111]
[1]
  inhibition at 1 µM: 20 to 50%
other
  melting point: 224 to 230 °C

## NC(=O)c1c(Nc2ccccc2Cl)n[nH]c1/N=C/c1ccc([N+](=O)[O-])c(O)c1 [Compound B114]
[1]
  inhibition at 1 µM: 20 to 50%
other
  melting point: 294 to 296 °C

## COc1cc(/C=N/c2[nH]nc(Nc3cccc(Cl)c3)c2C#N)ccc1OCc1cnc(Cl)s1 [Compound A60]
[1]
  inhibition at 1 µM: 5 to 20%
other
  melting point: 210 to 220 °C

## COc1ccc(C=Nc2[nH]nc(Nc3cccc(Cl)c3)c2C(N)=O)cc1 [Compound B3, 3-((3-chlorophenyl)amino)-5-((4-methoxybenzylidene)amino)-1H-pyrazole-4-carboxamide]
[1]
  inhibition at 1 µM: 5 to 20%
other
  melting point: 295 to 297 °C

## N#Cc1c(Nc2cccc(Cl)c2)n[nH]c1/N=C/c1c[nH]c2c(F)c(F)c(F)c(F)c12 [Compound A68]
[1]
  inhibition at 1 µM: 5 to 20%
other
  melting point: 343 to 347 °C

## N#Cc1ccc(/C=N/c2[nH]nc(Nc3cccc(Cl)c3)c2C#N)cc1 [Compound A102]
[1]
  inhibition at 1 µM: 5 to 20%
other
  melting point: 266 to 274 °C

## COc1ccc(/C=N/c2[nH]nc(Nc3cccc(Cl)c3)c2C#N)cc1 [Compound A13]
[1]
  inhibition at 1 µM: 5 to 20%
other
  melting point: 263 to 266 °C

## NC(=O)c1c(Nc2cccc(Cl)c2)n[nH]c1/N=C/c1cc(Cl)ccc1O [Compound B50]
[1]
  inhibition at 1 µM: 5 to 20%
other
  melting point: 283 to 287 °C

## NC(=O)c1c(Nc2ccc(Cl)cc2)n[nH]c1/N=C/c1cccc2ccccc12 [Compound B25]
[1]
  inhibition at 1 µM: ≤ 5%
other
  melting point: 290 to 296 °C

## NC(=O)c1c(Nc2ccc(Cl)cc2)n[nH]c1/N=C/c1ccc([N+](=O)[O-])cc1 [Compound B27]
[1]
  inhibition at 1 µM: 5 to 20%
other
  melting point: 291 to 293 °C

## N#Cc1c(Nc2cccc(Cl)c2)n[nH]c1/N=C/c1ccc2snnc2c1 [Compound A90]
[1]
  inhibition at 1 µM: ≤ 5%
other
  melting point: 276 to 281 °C

## COc1ccc(C(F)(F)F)cc1/C=N/c1[nH]nc(Nc2cccc(Cl)c2)c1C#N [Compound A75]
[1]
  inhibition at 1 µM: ≤ 5%
other
  melting point: 189 to 197 °C

## N#Cc1c(Nc2cccc(Cl)c2)n[nH]c1/N=C/c1c[nH]nc1-c1ccc(F)cc1 [Compound A1]
[1]
  inhibition at 1 µM: ≤ 5%
other
  melting point: 127 to 132 °C

## Cn1nc(CSc2ccccc2)c(/C=N/c2[nH]nc(Nc3cccc(Cl)c3)c2C#N)c1Cl [Compound A62]
[1]
  inhibition at 1 µM: 5 to 20%
other
  melting point: 194 to 202 °C

## NC(=O)c1c(Nc2cccc(Cl)c2)n[nH]c1/N=C/c1cccc2ccccc12 [Compound B15]
[1]
  inhibition at 1 µM: 5 to 20%
other
  melting point: 280 to 283 °C

## COc1ccc(/C=N/c2[nH]nc(Nc3cccc(Cl)c3)c2C#N)cn1 [Compound A100]
[1]
  inhibition at 1 µM: 5 to 20%
other
  melting point: 286 to 291 °C
